Experimental data published in US20070010543A1, “Compositions and methods for treating gastrointestinal hypomotility and associated disorders” (Dynogen Pharmaceuticals, Inc., priority 2005, published 2007).
Where “and” joins values, the source holds several entries; their conditions need not be identical. Identical values can stand only once.

Test system: guinea-pig distal colon
Test: Fecal pellet propulsion velocity assay, guinea pig ex vivo colon preparation
Source text: Hartley guinea pigs of either sex (Charles River Laboratories, Wilmington, Mass.) weighing approximately 300 grams were used in all experiments described herein. Segments of distal colon were taken from guinea pigs following euthanasia by isoflurane anesthesia and exsanguination. Colon segments were immediately placed on ice-cold physiological saline solution (PSS, see below for composition).
PSS was made daily and consisted of (in mM) 119 NaCl, 4.7 KCl, 24 NaHCO3, 1.2 KH2PO4, 2.5 CaCl2, 1.2 MgSO4, 11 glucose, and aerated with 95% O2-5% CO2 to obtain pH 7.4. Morphine (Sigma Chemical Company, St. Louis, Mo.), Naltrexone (Sigma Chemical Company, St. Louis, Mo.) or DDP733 (Dynogen Pharmaceuticals, Inc., Waltham, Mass.) were dissolved as stock solutions in distilled water.
Data are reported as means±SEM. Data were analyzed by t-test.
Segments of guinea-pig distal colon (5-8 cms long) were pinned out in an organ bath with pins attached to small pieces of mesentery adhering to the wall of the gut at intervals of approximately 1.5-2 cms. Colonic segments were superfused with oxygenated PSS warmed to about 37° C. An equilibration period was allowed, during which time the gut developed spontaneous tone and emptied its luminal contents. Following the equilibration period, a PE-50 catheter was inserted approximately 1 to 2 cms into the lumen via the anal end of the colon. Oxygenated PSS was perfused intraluminally at a rate of about 0.15 ml/min for a period of 30 minutes. At this point, a dried fecal pellet that had been coated with a synthetic polymer to maintain its structural integrity, was placed into the oral end of the colon, and the intraluminal catheter was advanced to the distal edge of the fecal pellet. The amount of time for the fecal pellet to move about 2 to 3 cms in the aboral direction was measured within the center of the colon segment using a custom computer program and digital video camera. A total of three motility trials were conducted in each experiment under baseline conditions, with a five-minute recovery period between each trial. Motility rates from these first three trials were averaged together to give a measure of baseline motility. After the third baseline trial, a 30-minute inter-trial equilibration period was allowed
At the end of the equilibration period, a fecal pellet was inserted into the oral end of the colon, and motility rate was assessed as before. A total of three motility trials were performed, with a 5-minute recovery period between each trial. Intraluminal infusion of naltrexone or DDP733 was resumed after each trial. Each colon was exposed to only a single concentration of naltrexone or DDP733.
Morphine (0.01 to 10 μM) was added to the superfusate (bath solution) during the inter-trial equilibration period, e.g., 15 minutes prior to the start of motility trials. Morphine remained in the bath solution for the remainder of the experiment. At the end of the equilibration period, a fecal pellet was inserted into the oral end of the colon, and motility rate was assessed as before. A total of three motility trials were performed, with a 5-minute recovery period between each trial. Each colon was exposed to only a single concentration of morphine.
Naltrexone was also infused intraluminally at this point. […] At the end of the equilibration period, a fecal pellet was inserted into the oral end of the colon, and motility rate was assessed as before.

SMILES	effect on morphine-induced decrease in motility (in words, summary of Table II)	Motility % control (Morphine 0.10 μM in bath, single preparations)	effect on motility (in words, summary of Table II)
O=C(N[C@H]1CN2CCC1CC2)c1c[nH]c2ccsc2c1=O [DDP733, (R)-N-1-azabicyclo[2.2.2]oct-3-yl-4,7-dihydro-7-oxothieno[3,2-b]pyridine-6-carboxamide]	diminished	–	–
CN1CC[C@]23c4c5ccc(O)c4O[C@H]2[C@@H](O)C=C[C@H]3[C@H]1C5 [Morphine]	–	72 % control and 57 % control and 73 % control and 78 % control	decrease in motility
